{"source": "patent EP1247803A2", "about": "“Indolinone compounds suitable for modulation of protein kinases” (Sugen, Inc., priority 1996, dated 1998)", "target": "T1, FLK-1 receptor (Mus musculus, UniProt P35918)", "T1 construct": "expressed in transfected cells; host or cells: NIH3T3 C7#3", "T1 sequence (P35918 20-1345)": "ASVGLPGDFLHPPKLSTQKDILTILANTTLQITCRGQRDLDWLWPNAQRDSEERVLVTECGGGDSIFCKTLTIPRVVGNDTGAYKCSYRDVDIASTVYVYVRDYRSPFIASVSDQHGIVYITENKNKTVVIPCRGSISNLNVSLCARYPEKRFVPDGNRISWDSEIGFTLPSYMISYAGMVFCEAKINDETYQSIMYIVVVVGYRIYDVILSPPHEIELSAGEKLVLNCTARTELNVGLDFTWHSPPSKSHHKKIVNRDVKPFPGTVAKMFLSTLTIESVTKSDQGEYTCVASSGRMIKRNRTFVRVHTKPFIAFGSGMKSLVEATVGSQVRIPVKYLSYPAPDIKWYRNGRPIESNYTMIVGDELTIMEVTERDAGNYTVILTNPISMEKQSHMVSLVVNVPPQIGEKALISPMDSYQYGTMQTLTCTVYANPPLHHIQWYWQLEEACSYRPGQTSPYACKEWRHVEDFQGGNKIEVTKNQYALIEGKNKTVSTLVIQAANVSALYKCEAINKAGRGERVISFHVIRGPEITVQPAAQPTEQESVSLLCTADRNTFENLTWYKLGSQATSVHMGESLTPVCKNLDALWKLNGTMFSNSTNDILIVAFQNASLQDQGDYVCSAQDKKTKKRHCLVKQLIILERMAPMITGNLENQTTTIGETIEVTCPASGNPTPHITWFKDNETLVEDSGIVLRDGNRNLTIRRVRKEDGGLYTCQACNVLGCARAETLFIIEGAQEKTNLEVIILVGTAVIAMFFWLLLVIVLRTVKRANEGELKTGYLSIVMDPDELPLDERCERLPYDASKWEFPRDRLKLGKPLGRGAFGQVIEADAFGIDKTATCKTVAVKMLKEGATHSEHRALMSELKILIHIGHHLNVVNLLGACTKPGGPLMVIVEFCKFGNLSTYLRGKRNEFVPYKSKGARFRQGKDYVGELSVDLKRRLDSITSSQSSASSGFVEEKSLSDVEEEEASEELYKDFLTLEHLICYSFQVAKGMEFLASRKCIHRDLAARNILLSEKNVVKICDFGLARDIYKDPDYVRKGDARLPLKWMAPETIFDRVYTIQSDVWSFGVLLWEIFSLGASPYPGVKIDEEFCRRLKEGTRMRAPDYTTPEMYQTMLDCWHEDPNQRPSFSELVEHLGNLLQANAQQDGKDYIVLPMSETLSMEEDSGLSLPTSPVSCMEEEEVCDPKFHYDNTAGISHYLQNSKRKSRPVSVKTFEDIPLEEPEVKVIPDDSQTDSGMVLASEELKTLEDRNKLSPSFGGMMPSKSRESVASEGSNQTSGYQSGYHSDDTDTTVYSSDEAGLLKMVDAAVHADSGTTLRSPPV", "assay": "FLK-1 ELISA (kinase activity of the FLK-1 receptor in FLK-1/NIH3T3 cells, VEGF stimulated)", "format": "cell-based", "how_it_was_run": "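FLK-1-expressing NIH3T3 C7#3 cells, starved overnight in 0.1% FBS medium, were treated with compounds at a 1:200 final dilution (0.5% DMSO) for 2 h at 37 °C, with VEGF stimulation. FLK-1 kinase activity was read by ELISA on anti-rabbit IgG plates using affinity-purified anti-FLK-1 antiserum.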", "data": [{"smiles": "Cc1c(Br)ccc2c1C(=Cc1cc(O)c3c(c1O)CCCC3)C(=O)N2", "note": "[10726/C07]", "values": [{"measurement": "Fik Kinase %Inhibition", "result": -17.0, "unit": "%"}]}]}
